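Tested at 5 concentrations; 48 h exposure; 96-well plates; endpoints linearly interpolated, else capped at highest concentration. GI50 is the concentration that inhibits growth by half. TGI: concentration producing complete growth inhibition.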
What was measured:
Assay in all cases: NCI-60 cell line screen, 48 h
[1] = test system: OVCAR-8 ovarian
[2] = test system: HOP-62 NSCLC
[3] = test system: SF-295 CNS
[4] = test system: SR leukemia
[5] = test system: UACC-257 melanoma
[6] = test system: MDA-MB-468 breast
[7] = test system: HS 578T breast
[8] = test system: MDA-MB-231 breast
[9] = test system: SF-268 CNS
[10] = test system: HCT-116 colon
[11] = test system: HOP-92 NSCLC
[12] = test system: SNB-75 CNS
[13] = test system: NCI-H460 lung
[14] = test system: IGROV1 ovarian
[15] = test system: PC-3 prostate
[16] = test system: UACC-62 melanoma
[17] = test system: SW-620 colon
[18] = test system: SK-MEL-5 melanoma
[19] = test system: COLO 205 colon
[20] = test system: CCRF-CEM leukemia
[21] = test system: ACHN renal
[22] = test system: EKVX NSCLC
[23] = test system: HCC-2998 colon
[24] = test system: NCI/ADR-RES ovarian
[25] = test system: U251 CNS
[26] = test system: A498 renal
[27] = test system: HL-60(TB) leukemia
[28] = test system: CAKI-1 renal
[29] = test system: NCI-H522 lung

Compound `COc1ccc(NC(=O)N/N=C/c2c[nH]c3ccccc23)cc1` has a GI50 [1] of 801 nM, a TGI [1] of 24600 nM and a GI50 [2] of 724 nM. For the same compound, the TGI [2] was greater than 100000 nM, the GI50 [3] was 458 nM and the TGI [3] was greater than 32700 nM. For the same compound, the GI50 [4] was 250 nM, the TGI [4] was greater than 53400 nM and the GI50 [5] was greater than 100000 nM. The TGI [5] was greater than 100000 nM, the GI50 [6] was 911 nM and the TGI [6] was 4400 nM. For the same compound, the GI50 [7] was 1130 nM, the TGI [7] was greater than 100000 nM and the GI50 [8] was 1010 nM. The TGI [8] was 56000 nM, the GI50 [9] was 5440 nM and the TGI [9] was greater than 81400 nM. The GI50 [10] was 389 nM, the TGI [10] was 22600 nM and the GI50 [11] was 2290 nM. The TGI [11] was 38300 nM, the GI50 [12] was 1410 nM and the TGI [12] was 12100 nM. It also gave a GI50 [13] of 579 nM, a TGI [13] of 26300 nM and a GI50 [14] of 646 nM. It also gave a TGI [14] greater than 100000 nM, a GI50 [15] of 1650 nM and a TGI [15] greater than 100000 nM. The GI50 [16] was 364 nM, the TGI [16] was greater than 47300 nM and the GI50 [17] was 517 nM. It also gave a TGI [17] greater than 100000 nM, a GI50 [18] of 524 nM and a TGI [18] of 5180 nM. It also gave a GI50 [19] of 586 nM, a TGI [19] of 3120 nM and a GI50 [20] of 379 nM. For the same compound, the TGI [20] was 17600 nM, the GI50 [21] was 1740 nM and the TGI [21] was greater than 100000 nM. For the same compound, the GI50 [22] was 3410 nM, the TGI [22] was greater than 100000 nM and the GI50 [23] was 1910 nM. The TGI [23] was 24100 nM, the GI50 [24] was 308 nM and the TGI [24] was 1440 nM. It also gave a GI50 [25] of 431 nM, a TGI [25] greater than 89100 nM and a GI50 [26] greater than 40700 nM. It also gave a TGI [26] greater than 88300 nM, a GI50 [27] of 279 nM and a TGI [27] of 1530 nM. The GI50 [28] was 678 nM, the TGI [28] was greater than 100000 nM and the GI50 [29] was 249 nM. The TGI [29] was 879 nM.
